Molecular target: T1, Human synovial fluid phospholipase A2 (HSF-PLA2) (Homo sapiens, UniProt P14555)
T1 construct: Human synovial fluid phospholipase A2 was purified approximately 5000 fold; from tissue; host or cells: human synovial fluid
T1 sequence (P14555 21-144): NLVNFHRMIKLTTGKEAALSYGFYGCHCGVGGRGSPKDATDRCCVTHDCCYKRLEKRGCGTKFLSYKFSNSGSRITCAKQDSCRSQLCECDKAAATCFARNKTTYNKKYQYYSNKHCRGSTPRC
Assay: Human synovial fluid phospholipase A2 (HSF-PLA2) assay, [14C]-oleate-labeled autoclaved E. coli substrate
Type: biochemical
Conditions: purified HSF-PLA2; pH 7.0, 5 mM CaCl2; 5 min pre-incubation; 37° C., 30 minutes; mean
Procedure: Human synovial fluid phospholipase A2 was purified approximately 5000 fold following the procedures of Franson et al., Lung 160, 275-284 (1982) and Vishwanath et al., Inflammation 12(6), 549-56 (1988). Following purification the enzyme activity was measured by a modified methodology using [^14 C]-oleate-labeled, autoclaved E. coli as the substrate as also shown in the above noted references. The assay was performed in a final volume of 100 μl containing 50 mM HEPES (pH 7.0), 150 mM NaCl, 5mM CaCl2, 7 n mole [^14 C]-oleate-labeled E. coli phospholipid and with or without the compound from one of the examples herein undergoing an assay. The compound or control vehicle was pre-incubated with the PLA2 for 5 minutes followed by addition of the E. coli substrate to initiate the reaction. The reaction was maintained at 37° C. for 30 minutes and then terminated by the addition of 2 ml tetrahydrofuran (THF). The reaction product, [^14 C]-oleic acid, was extracted using a 1 ml Bond Elut-NH2 Solid phase extraction column. The IC50 value for the compound (mean -S.E.) is given in the following Table I and represents the concentration of the indicated compound required to inhibit 50% of the PLA2 activity.

Compound | IC50
CCCCCCCCCCCCCC#CC(=O)Cc1ccccc1C(=O)OC [Example 11, methyl 2-(2-oxo-3heptadecynyl)benzoate] | 17.4 µM
CCCCCCCCCCCCCC#CC(=O)Cc1cccc(C(=O)OC)c1 [Example 5, methyl 3-(2-oxo-3-heptadecynyl) benzoate] | 6 µM
COCCCCCCCCCC#CC(=O)Cc1cccc(C(=O)OC)c1 [Example 9, methyl 3-(2-oxo-13-methoxy-3-tridecynyl)benzoate] | 20.6 µM

These reach a lower IC50. Values come first.

IC50 | Compound
2.2 µM | CCCCCCCCCCCCCC#CC(=O)Cc1ccc(C(=O)OC)cc1 [Example 14, methyl 4-(2-oxo-3heptadecynyl)benzoate]
2.75 µM | COC(=O)c1cccc(CC(=O)C#CCCCCCCCCCOc2ccccc2)c1 [Example 7, methyl 3-(2-oxo-13-phenoxy-3-tridecynyl)benzoate]
